Test results reported in ChEMBL document CHEMBL1134179, “Equilibrium and kinetics studies of transnitrosation between S-nitrosothiols and thiols” (Bioorg Med Chem Lett, 2001).

Test: pKa value was determined
Assay type: physicochemical

Structure (SMILES)	pKa
CCOC(=O)[C@@H](N)CS	6.5
CC(=O)NC(C(=O)O)C(C)(C)S (stereo not given) [N-ACETYL PENICILLAMINE]	9.9
CC(=O)N[C@@H](CS)C(=O)O [ACETYLCYSTEINE]	9.52
N[C@@H](CCC(=O)N[C@@H](CS)C(=O)NCC(=O)O)C(=O)O [GLUTATHIONE]	8.75
CC(C)(S)[C@@H](N)C(=O)O [PENICILLAMINE]	8.53
